Data set [1] has as its system TT cells (MTC, RET/C634W). Put plainly: Growth curve proliferation assay, TT cells. The class given is cell-based. Conditions: Homo sapiens, last day of growth curves. On the procedure:
FIG. 5: Effects exerted by indicated concentrations of Pz-1 or vehicle (NT: not treated) on proliferation of TT (human MTC cell line expressing RET/C634W), Lc-2/ad (human NSCLC expressing CCDC6-RET) and Nthy-ori-3-1 (thyroid non-transformed) cell lines. Data are the mean±SD (Standard Deviation) of one experiment performed in triplicate. Bottom, right) Growth inhibition IC50 of Pz-1 for the different cell lines: 95% CI (confidence intervals) are indicated in brackets. Cells were seeded in triplicate in 60-mm dishes and kept in 5% (Nthy-ori-3-1) or 10% (TT and Lc-2/ad) fetal calf serum. The day after plating, different concentrations of Pz-1 or vehicle were added to the medium and changed every 2-3 days. Cells were counted every 2-3 days and cell numbers were reported±SD (Standard Deviation). IC50 doses (with Confidence Intervals) were calculated through a curve fitting analysis from the last day of growth curves using the PRIZM software program (Graphpad Software Inc).
Nthy-ory-3-1 and TTcells were seeded in 60-mm dishes. […] Cells were counted every 2-3 days. […] Parental and RET/PTC-expressing Ba/F3 were kept in 10% fetal calf serum in 6-multi wells and counted every day for 4 consecutive days, changing media every 2 days. […] IC50 doses were calculated through a curve fitting analysis from the last day of growth curves using the PRISM software program (Graphpad Software Inc). […]

A short description of data set [2]: week-long toxicology study in mice. The class given is in vivo. On the procedure: For PK studies of Pz-1 in animals, a solution formulation for oral administration was created in 500 μL of polysorbate 80, 500 μL of EtOH, and 1.0 mL of pH 2 buffer. For the toxicity studies, a suspension formulation was developed in tween 20 (20%) and xanthan gum (0.125%).
Similarly, the toxicity markers including phosphorus, creatinine, total bilirubin, GGT, ALP, glucose, total protein, albumin, globulin, calcium, cholesterol, and BUN were not impacted at any dose. […] At the highest dose, the concentration of ALT was slightly above the normal ALT level of 80 U/L, but below the toxicity threshold of 200 U/L. ALT levels can easily be monitored and can serve as a reversible toxicity marker in the clinical setting.

`Cn1cc(-c2ccc3c(c2)ncn3-c2ccc(CC(=O)Nc3cc(C(C)(C)C)on3)cc2)cn1` [Pz-1, N-(5-(tert-butyl)isoxazol-3-yl)-2-(4-(5-(1-methyl-1H-pyrazol-4-yl)-1H-benzo[d]imidazol-1-yl)phenyl)acetamide] yielded an IC50 in data set [1] of 1.86 nM. Also, the ALT in blood is on record as 22 U/L in data set [2] (10 mg/kg), 51 U/L in data set [2] (30 mg/kg) and 96 U/L in data set [2] (100 mg/kg). In addition, the “toxicity markers (phosphorus, creatinine, total bilirubin, GGT, ALP, glucose, total protein, albumin, globulin, calcium, cholesterol, BUN)” value in data set [2] (any dose) is recorded as “not impacted”. For the same compound, in data set [2] (even at 100 mg/kg), the “organ pathological analysis in heart, kidney, and liver” value is “did not show adverse effects”. In addition, the toxicity entry in data set [2] (one week, daily dose escalation from 10 mg/kg to 100 mg/kg, suspension formulation) is “no significant toxicity”.

The values are drawn from patent US9988371B2, “Benzimidazole analogues and related methods” (The Arizona Board of Regents, on Behalf of the University …, priority 2014, dated 2018).
